Measurements reported in patent publication US10513539B2, “Hydrophobic modified peptides and their use for liver specific targeting” (Ruprecht-Karls-Universitat Heidelberg, priority 2011, dated 2019).

Experiments:
[1] = test system: primary mouse hepatocytes
Procedure: Next it was analyzed if the modified doxorubicin is still cytotoxic to cells. In this experiment primary mouse hepatocytes isolated from C57BL/6 mice as described in Galle et al., (1994) (37) were incubated and reseeded in 96 well flat bottom plates to form a confluent cell layer. […] The cells were then incubated for 12 h (FIG. 6A) or 24 h (FIG. 6B), respectively. After incubation an MTT assay (Cell proliferation Kit, Roche Mannheim Germany) was performed as indicated by the manufacturer's instructions to determine remaining cell viability. The results are shown in FIGS. 6A and 6B (Cell Viability Assay).

[2] = Procedure: The peptide stearoyl-[K(DOTA[^68Ga])]3-[…] (SEQ ID NO:15)-amide was dissolved in citrate buffer (pH 8.0)+4% BSA and injected i.v. in the tail vene of tumour bearing WAG/Rij rats. The rats were orthopically injected with 1×10^6 syngenic colon carcinoma cells (CC531 cells) 10 days prior to the measurements. At the day of measurement the rats received the peptide in a concentration of 400 nmol/kg body weight. During the experiments the rats were anaesthetised by isoflurane and kept at 37° C.

| Compound | cytotoxic effects [1] | cytotoxic activity (HepG2 cells) | enrichment in the liver (PET) ([2]; 400 nmol/kg i.v., WAG/Rji rat, five minutes post i.v. injection (FIG. 4A)) | specificity of staining, liver tissue vs tumor tissue (merged PET images) ([2]; tumour bearing rat (CC531 colon carcinoma), FIG. 4C) |
| --- | --- | --- | --- | --- |
| COc1cccc2c1C(=O)c1c(O)c3c(c(O)c1C2=O)C[C@@](O)(C(=O)CO)C[C@@H]3O[C@H]1C[C@H](N)[C@H](O)[C@H](C)O1 [doxorubicin] | significant cytotoxic effects | significant cytotoxicity | – | – |
| CCCCCCCCCCCCCCCCCC(=O)N[C@@H](CCCCNC(=O)CN1CCN(CC(=O)O)CCN(CC(=O)O)CCN(CC(=O)O)CC1)C(=O)N[C@@H](CCCCNC(=O)CN1CCN(CC(=O)O)CCN(CC(=O)O)CCN(CC(=O)O)CC1)C(=O)N[C@@H](CCCCNC(=O)CN1CCN(CC(=O)O)CCN(CC(=O)O)CCN(CC(=O)O)CC1)C(=O)N[C@@H](CC(N)=O)C(=O)N[C@@H](CC(C)C)C(=O)N[C@@H](CO)C(=O)N[C@H](C(=O)N[C@@H](CO)C(=O)N[C@@H](CC(N)=O)C(=O)N1CCC[C@H]1C(=O)N[C@@H](CC(C)C)C(=O)NCC(=O)N[C@@H](Cc1ccccc1)C(=O)N[C@@H](Cc1ccccc1)C(=O)N1CCC[C@H]1C(=O)N[C@@H](CC(=O)O)C(=O)N[C@@H](Cc1c[nH]cn1)C(=O)N[C@@H](CCC(N)=O)C(=O)N[C@@H](CC(C)C)C(=O)N[C@@H](CC(=O)O)C(=O)N1CCC[C@H]1C(N)=O)[C@@H](C)O | – | – | Specific enrichment | staining only liver tissue but not the tumor tissue |
